Patent publication US4379159A, “Antiinflammatory 2-substituted-thio-4,5-dihydro-4,5-diaryl-1H-imidazoles” (E. I. Du Pont de Nemours & Company, priority 1980, dated 1983)

Key:
[1] = tested on: adjuvant-induced arthritis in rats; assay: Established Adjuvant-Induced Arthritis in Rats; assay type: in vivo, rat (Lewis (Wistar) male rats); conditions: oral gavage once daily 7 days (days 14-20), paw volume on day 21; for ED50: Rattus norvegicus, ED50% for decrease from control paw volume, estimated by inspection of dose-response regression lines
adjuvant arthritis = conditions: background statement; cited from earlier work
arthritis = conditions: background statement; cited from earlier work

CSC1=NC(c2ccc(Cl)cc2)C(c2ccc(Cl)cc2)N1.Cl (centres unmarked) [Example 1, 4,5-Bis(4-chlorophenyl)-4,5-dihydro-2-(methylthio)-1H-imidazole Hydrochloride]
ED50 [1]: 60 mg/kg

C=CCSC1=NC(c2ccc(Cl)cc2)C(c2ccc(Cl)cc2)N1.Cl (centres unmarked) [Example 2, 4,5-Bis(4-chlorophenyl)-4,5-dihydro-2-(allylthio)-1H-imidazole Hydrochloride]
percent reduction in paw volume at the indicated dose ([1]; at 25 mg/kg): 28%

Cl.FC(F)(F)CSC1=NC(c2ccc(Cl)cc2)C(c2ccc(Cl)cc2)N1 (centres unmarked) [Example 3, 4,5-Bis(4-chlorophenyl)-4,5-dihydro-2-(2,2,2-trifluoroethylthio)-1H-imidazole Hydrochloride]
ED50 [1]: 25 mg/kg

c1ccc([C@H]2CN3CCSC3=N2)cc1 [Levamisole, 2,3,5,6-Tetrahydro-6-phenylimidazole-[2,1-b]thiazole]
activity in an adjuvant arthritis test (adjuvant arthritis): inactive | clinical efficacy as an antiarthritic (arthritis): has shown clinical efficacy
